Each molecule was assayed on Gallus gallus (assay: Antiemetic activity against copper sulfate-induced emesis in young chicks assessed as decrease in retching at 20 mg/kg, ip measured for 10 mins). Conditions: route intraperitoneal.
Type: functional

| Structure (SMILES) | inhibition in vivo at 20 mg/kg [%] |
| --- | --- |
| O=C(CCc1ccccc1)CC(O)CCc1ccc(O)cc1 (stereo not drawn) | 71 |
| O=c1c(O)c(-c2ccccc2)oc2cc(O)cc(O)c12 [GALANGIN] | 25.4 |
| COc1ccc(-c2oc3cc(O)cc(O)c3c(=O)c2O)cc1 [KAEMPFERIDE] | 63.3 |

Each molecule was assayed on Gallus gallus (assay: Antiemetic activity against copper sulphate-induced emesis in young chicks assessed as decrease in retching at 50 mg/kg, ip measured for 10 mins). Conditions: route intraperitoneal.
Type: functional

| Structure (SMILES) | inhibition in vivo at 50 mg/kg [%] |
| --- | --- |
| Oc1ccc(CC[C@@H](O)C[C@H](O)CCc2ccccc2)cc1 | 37.7 |
| COc1cc(CC[C@@H](O)CC(=O)CCc2ccc(O)cc2)ccc1O | 38.3 |
| COc1cc(CCC(=O)C[C@H](O)CCc2ccc(O)cc2)ccc1O | 12.4 |
| COc1cc(CCC(O)CC(O)CCc2ccccc2)ccc1O (stereo not drawn) | 45.7 |
| CCCCCCCCCCCCCCCC(=O)OC[C@H]1O[C@@H](O[C@H]2CC[C@@]3(C)C(=CC[C@H]4[C@@H]5CC[C@H]([C@H](C)CC[C@H](CC)C(C)C)[C@@]5(C)CC[C@@H]43)C2)[C@H](O)[C@@H](O)[C@@H]1O | 50.9 |

From ChEMBL document CHEMBL1150636, “Antiemetic principles of Alpinia officinarum” (2002)
